Results taken from ChEMBL document CHEMBL1155109, “Discovery of 4-amino and 4-hydroxy-1-aroylindoles as potent tubulin polymerization inhibitors” (J Med Chem, 2008).

Legend:
[1] = system: NCI-H460; assay: Growth inhibition of human H460 cells after 72 hrs by methylene blue dye assay; format: functional, cell-based; details: NCI-H460, 72 h
[2] = system: MKN-45; assay: Growth inhibition of human MKN45 cells after 72 hrs by methylene blue dye assay; format: functional, cell-based; details: MKN-45, 72 h
[3] = system: KB; assay: Growth inhibition of human KB cells after 72 hrs by methylene blue dye assay; format: functional, cell-based
[4] = Displacement of [3H]colchicine from microtubule associated protein rich tubulin at 5 uM
[5] = Inhibition of microtubule associated protein rich tubulin polymerization
[6] = Displacement of [3H]colchicine from microtubule associated protein rich tubulin at 1 uM
[7] = Growth inhibition of P-gp 170/MDR overexpressing human KB-vin10 cells after 72 hrs by methylene blue dye assay; format: functional; details: KB-VIN10, 72 h

Row | SMILES | IC50 [1] | IC50 [2] | IC50 [3] | inhibition [4] | IC50 [5] | inhibition [6] | IC50 [7]
1 | COc1cc(C(=O)n2c(C)cc3cc(N)ccc32)cc(OC)c1OC | 334 nM | 156 nM | 345 nM | – | – | – | 312 nM
2 | COC(=O)c1ccc2c(ccn2C(=O)c2cc(OC)c(OC)c(OC)c2)c1 | > 5000 nM | > 5000 nM | > 5000 nM | – | – | – | 5000 nM
3 | COc1ccc(/C=C\c2cc(OC)c(OC)c(OC)c2)cc1O [COMBRETASTATIN A4] | 2.8 nM | 5.6 nM | 2.2 nM | 93% | – | 85% | –
4 | COc1cc(C(=O)n2ccc3c([N+](=O)[O-])c(OC)ccc32)cc(OC)c1OC | > 5000 nM | > 5000 nM | > 5000 nM | – | – | – | > 5000 nM
5 | COc1cc2c(c(OC)c1OC)-c1ccc(OC)c(=O)cc1[C@@H](NC(C)=O)CC2 [COLCHICINE] | – | 11 nM | 11.4 nM | – | 3000 nM | – | 125 nM
6 | COc1cc(C(=O)n2ccc3cc(CN(C)C)ccc32)cc(OC)c1OC | > 5000 nM | > 5000 nM | > 5000 nM | – | – | – | > 5000 nM
7 | COc1ccc2c(c1)cc(CO)n2C(=O)c1cc(OC)c(OC)c(OC)c1 | > 5000 nM | > 5000 nM | > 5000 nM | – | – | – | > 5000 nM
8 | CCOC(=O)c1cc2cc(OC)ccc2n1C(=O)c1cc(OC)c(OC)c(OC)c1 | 198 nM | 101 nM | 230 nM | – | – | – | 185 nM
9 | COc1ccc2c(c1)c(CN(C)C)cn2C(=O)c1cc(OC)c(OC)c(OC)c1 | > 5000 nM | > 5000 nM | > 5000 nM | – | – | – | > 5000 nM
10 | COc1ccc2c(c1)cc(C(C#N)N(C)C)n2C(=O)c1cc(OC)c(OC)c(OC)c1 (configuration not stated) | > 5000 nM | > 5000 nM | > 5000 nM | – | – | – | > 5000 nM

Second part, led by results:

Row | IC50 [1] | IC50 [2] | IC50 [3] | inhibition [4] | IC50 [5] | inhibition [6] | SMILES | IC50 [7]
11 | 0.5 nM | 0.6 nM | 0.3 nM | 97% | 600 nM | 94% | COc1cc(C(=O)n2c(C)cc3c(O)c(OC)ccc32)cc(OC)c1OC | 0.3 nM
12 | 559 nM | 521 nM | 575 nM | – | – | – | COc1cc(C(=O)n2ccc3cc4c(cc32)OCO4)cc(OC)c1OC | 587 nM
13 | > 5000 nM | > 5000 nM | > 5000 nM | – | – | – | COc1ccc(NC(=O)c2cc(OC)c(OC)c(OC)c2)cc1 | > 5000 nM
14 | 52 nM | 41 nM | 42 nM | 89% | 1500 nM | 72% | COc1cc(C(=O)n2c(C)cc3cc(N(C)C)ccc32)cc(OC)c1OC | 38 nM
15 | 353 nM | 314 nM | 371 nM | – | – | – | COc1cc(C(=O)n2ccc3cc(C)ccc32)cc(OC)c1OC | 400 nM
16 | > 5000 nM | > 5000 nM | > 5000 nM | – | – | – | COc1cc(C(=O)n2ccc3cc(CO)ccc32)cc(OC)c1OC | > 5000 nM
17 | > 5000 nM | > 5000 nM | > 5000 nM | – | – | – | CCOC(=O)c1c(C)n(C(=O)c2cc(OC)c(OC)c(OC)c2)c2ccc(OC)cc12 | > 5000 nM
18 | > 5000 nM | > 5000 nM | > 5000 nM | – | – | – | COc1cc(C(=O)n2ccc3cc(C=O)ccc32)cc(OC)c1OC | > 5000 nM
19 | 98 nM | 53 nM | 89 nM | 55% | 2600 nM | 27% | COc1ccc2c(c1)CCN2C(=O)c1cc(OC)c(OC)c(OC)c1 | 84 nM
20 | 413 nM | 257 nM | 370 nM | – | – | – | COc1ccc2c(c1)CC(C)N2C(=O)c1cc(OC)c(OC)c(OC)c1 (configuration not stated) | 372 nM
21 | 5.4 nM | 3.1 nM | 1.2 nM | 93% | 900 nM | 71% | COc1cc(C(=O)n2ccc3c(N)c(OC)ccc32)cc(OC)c1OC | 2.4 nM
22 | 652 nM | 395 nM | 596 nM | – | > 5000 nM | – | COc1ccc2c(c1)CCCN2C(=O)c1cc(OC)c(OC)c(OC)c1 | 586 nM
